Laboratory results taken from US9757375B2, “Compounds that inhibit human DNA ligases and methods of treating cancer” (University of Maryland, Baltimore, priority 2007, dated 2017).
Entries after “also recorded” stand apart in the source; their conditions may differ.

Tests used:
hLigI = molecular target: T1, hLigI (Homo sapiens, UniProt P18858); assay: High-throughput fluorescence-based DNA joining (ligation) assay; type: biochemical; conditions: in vitro screen, 100 μmol/L; the 15 hLigI inhibitors inhibited by >50%
T1 construct: made in house
How it was run: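 Nicked DNA substrate (10 pmol) was incubated with 0.25 pmol hLigI, with or without 100 μmol/L test compound, in duplicate. Afterwards the DNA was denatured and renatured with a 20-fold excess of unmodified oligonucleotide. Ligation forms an AF488/BHQ1 hairpin, read as reduced fluorescence at 518 nm.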

T4 DNA ligase = molecular target: T2, T4 DNA ligase (Enterobacteria phage T4, UniProt P00970); assay: High-throughput fluorescence-based DNA joining assay, non-specific inhibitor control; type: biochemical, bacteriophage T4; conditions: in vitro screen, 100 μmol/L
T2 construct: purchased NEB
T2 sequence (P00970 1-487): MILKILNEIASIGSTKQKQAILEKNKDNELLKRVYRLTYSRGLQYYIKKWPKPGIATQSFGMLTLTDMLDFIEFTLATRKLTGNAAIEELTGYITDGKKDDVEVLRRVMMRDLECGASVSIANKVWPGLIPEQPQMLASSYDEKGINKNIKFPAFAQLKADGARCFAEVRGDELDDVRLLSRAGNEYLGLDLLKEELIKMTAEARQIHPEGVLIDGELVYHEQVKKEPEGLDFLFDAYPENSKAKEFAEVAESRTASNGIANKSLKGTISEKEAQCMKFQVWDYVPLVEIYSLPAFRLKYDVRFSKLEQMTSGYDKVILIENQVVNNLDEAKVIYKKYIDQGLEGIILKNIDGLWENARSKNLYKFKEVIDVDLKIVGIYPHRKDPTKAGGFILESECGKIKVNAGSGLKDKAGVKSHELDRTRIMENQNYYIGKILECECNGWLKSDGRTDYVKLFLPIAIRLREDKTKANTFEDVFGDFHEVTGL
How it was run: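 This counter-screen used a FRET-based DNA joining assay. Duplicate reactions held 10 pmol nicked DNA substrate and 10 units T4 DNA ligase, with or without 100 μmol/L compound. T4 ligase lacks the DNA-binding domain targeted in silico, so compounds inhibiting it were flagged as non-specific, likely DNA-binding.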

DNA = DNA binding by displacement of ethidium bromide from DNA; conditions: EtBr replacement assay; 192 at 0, 50, 100 μM
Method: Candidate ligase inhibitors identified by CADD were assayed for their ability to inhibit hLigI and T4 DNA ligase using a high-throughput, fluorescence energy transfer-based DNA joining assay (22). Duplicate reactions (30 μL) containing 10 pmol of nicked DNA substrate and either 0.25 pmol of hLigI or 10 units of T4 DNA ligase were incubated in the presence or absence of 100 μmol/L of the putative inhibitor. DNA binding by the candidate DNA ligase inhibitors was measured by displacement of ethidium bromide from DNA as previously described (30).

HCT116 cells = assay: Cell proliferation screen (SYBR Green, Biomek FX); type: cell-based, human; conditions: 50 μM; percentage of values obtained with DMSO alone
Method: The ability of the compounds identified by CADD to inhibit proliferation of normal mammary epithelial MCF10A cells and colon carcinoma HCT116 cells was determined using a Biomek FX Laboratory Automation Workstation (Beckman Coulter, Inc., Fullerton, Calif.). On day 0, 20 μl of complete medium containing the appropriate number of cells (150-300) was plated per well of a 384-well tissue plate (Fisher Scientific, Hampton, N.H.) and incubated overnight at 37° C. with 5% CO2 and 90% humidity. Next day, day 1, compounds were prepared by serial dilution with complete medium to yield the concentration 100 μM, and 20 μl was added to each well containing 20 μl of medium and cells yielding the final concentration 50 μM in 40 μl volume. Plates were incubated for additional 3 days (days-2-5) until control cells (0.5% DMSO) reached ˜70-80% confluency. On day 6, 40 μl of lysis/detection solution containing 1.2% Igepal CA-630 (Sigma) and a 1:1000 dilution of SYBR Green I nucleic acid stain (Molecular Probes, Eugene, Oreg.) was added to each well. Following an overnight incubation at 37° C., total fluorescence was measured using a Fluorostar Galaxy plate reader with a 485 nm excitation filter and 520 nm emission filter set (BMG Labtech, Inc., Durham, N.C.). Data was exported to a custom program that determined growth inhibition by dividing each individual fluorescence value by the average of fluorescence values obtained with cells treated with DMSO alone.
The 192 human DNA ligase inhibitors were screened in parallel for effects on proliferation and the ability to potentiate the effects of several DNA damaging agents using two cell human lines, a colon cancer line HCT116 and a normal breast epithelial cell line MCF10A using a Biomek FX Laboratory Automation Workstation as described (23). The DNA damaging agents used, methyl methanesulfonate (MMS), camptothecin, cis-platinum, 3 aminobenzamide and ionizing radiation, are representatives of classes of agents used to treat cancer. Briefly, HCT116 and MCF10A cells were plated in 96 well plates such that the cultures were about 80% confluent after 5 days incubation. Compounds were added to the cultures at either 15 μM or 50 μM 1 day after plating. After incubation for 3 days, cell lysed in a solution containing 1.2% Igepal CA-630 and SYBR green that stains DNA (1:1000, Molecular Probes, Eugene, Oreg.). Subsequently, fluorescence was measured per well. The studies with DNA damaging agents were performed as follows. […] For ionizing radiation, cells were pre-incubated with the compounds at 50 μM for 1 hour prior to exposure to 2 gray of ionizing radiation. Cultures were incubated for 3 days and then treated as above.

T1 sequence (P18858 whole entry): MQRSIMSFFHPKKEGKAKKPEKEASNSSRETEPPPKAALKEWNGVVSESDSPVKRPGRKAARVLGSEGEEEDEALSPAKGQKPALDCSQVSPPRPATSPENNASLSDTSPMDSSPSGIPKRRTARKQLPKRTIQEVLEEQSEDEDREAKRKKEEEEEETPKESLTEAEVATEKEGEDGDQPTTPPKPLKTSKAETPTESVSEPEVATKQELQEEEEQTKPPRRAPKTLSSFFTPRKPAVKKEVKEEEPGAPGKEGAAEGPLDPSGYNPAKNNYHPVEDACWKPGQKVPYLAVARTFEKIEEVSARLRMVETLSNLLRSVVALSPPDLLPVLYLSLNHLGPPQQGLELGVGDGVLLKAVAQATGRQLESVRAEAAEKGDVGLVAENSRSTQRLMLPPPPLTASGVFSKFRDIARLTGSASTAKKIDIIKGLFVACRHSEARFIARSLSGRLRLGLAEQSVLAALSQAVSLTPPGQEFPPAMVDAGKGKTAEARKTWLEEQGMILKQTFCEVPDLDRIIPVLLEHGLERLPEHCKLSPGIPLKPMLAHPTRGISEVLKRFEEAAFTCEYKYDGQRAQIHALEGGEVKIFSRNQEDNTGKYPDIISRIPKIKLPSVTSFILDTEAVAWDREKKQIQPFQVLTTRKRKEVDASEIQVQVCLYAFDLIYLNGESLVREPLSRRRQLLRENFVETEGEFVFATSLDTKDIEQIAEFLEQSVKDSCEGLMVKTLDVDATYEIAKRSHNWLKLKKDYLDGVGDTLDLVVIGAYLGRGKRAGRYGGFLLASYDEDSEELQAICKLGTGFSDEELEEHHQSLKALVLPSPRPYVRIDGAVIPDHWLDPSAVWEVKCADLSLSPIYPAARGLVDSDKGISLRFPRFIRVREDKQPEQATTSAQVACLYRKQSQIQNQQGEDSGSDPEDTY

For O=S(=O)(O)N=Nc1ccc2c(c1)[nH]c1ccccc12 [Compound 192], the “inhibition of hLigI (DNA ligase I), in words” value (hLigI) was “inhibited hLigI; also recorded: inhibits both hLigI and T4 DNA ligase”, the “inhibition of T4 DNA ligase, in words” value (T4 DNA ligase) was “inhibits both hLigI and T4 DNA ligase” and the “DNA binding of compound (effect on DNA binding by ethidium bromide)” value (DNA) was “reduced DNA binding of the DNA intercalating agent ethidium bromide; also recorded: EtBr is replaced”. For the same compound, the “Growth_Inh % (50 μM) HCT116” value (HCT116 cells) was 70%.
